Test results taken from US20060089378A1 (priority 2004, published 2006).
pEC50, pIC50: −log10 of the molar value. Read-outs that look alike come from different tables or passages of the source.

Tests used:
CB2 receptor (human) = biological target: T1, CB2 receptor (human) (Homo sapiens, UniProt P34972); test: Functional cell-based assay, CB2 receptor mediated change in CRE β-gal expression (adenylate cyclase activity) in SK-N-MC cells
T1 construct: expressed in transfected cells

Cannabinoid CB2 Receptor = biological target: T2, Cannabinoid CB2 Receptor (Homo sapiens, UniProt P34972); test: Binding assay for CB2 agonists or inverse agonists (radioligand competition, membranes of transfected SK-N-MC cells)
T2 construct: expressed in transfected cells

CB1 receptor (human) = CB1 receptor (human) (Homo sapiens, UniProt P21554); test: cell-based; settings: for CB1 Receptor Functional Activity (change in functional activity, CRE β-gal): one compound concentration, β-galactosidase activity relative to vehicle treated cells
Cannabinoid CB1 Receptor = biological target: T3, Cannabinoid CB1 Receptor (Homo sapiens, UniProt P21554); test: Binding assay for CB1 agonists or inverse agonists (radioligand competition, membranes of transfected SK-N-MC cells)
T3 construct: expressed in transfected cells
T3 sequence (P21554 whole entry): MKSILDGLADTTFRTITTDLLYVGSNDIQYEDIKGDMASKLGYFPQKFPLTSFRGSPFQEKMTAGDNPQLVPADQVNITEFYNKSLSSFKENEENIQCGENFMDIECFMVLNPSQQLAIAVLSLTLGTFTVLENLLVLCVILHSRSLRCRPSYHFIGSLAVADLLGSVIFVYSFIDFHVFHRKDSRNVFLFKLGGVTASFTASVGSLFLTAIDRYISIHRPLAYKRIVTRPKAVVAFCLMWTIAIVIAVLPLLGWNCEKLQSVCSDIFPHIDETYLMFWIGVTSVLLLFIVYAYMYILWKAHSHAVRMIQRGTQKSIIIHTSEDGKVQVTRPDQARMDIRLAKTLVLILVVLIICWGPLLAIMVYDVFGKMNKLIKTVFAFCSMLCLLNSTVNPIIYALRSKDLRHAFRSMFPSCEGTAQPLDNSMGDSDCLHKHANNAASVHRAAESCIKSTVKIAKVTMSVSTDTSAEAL

T2 sequence (P34972 whole entry): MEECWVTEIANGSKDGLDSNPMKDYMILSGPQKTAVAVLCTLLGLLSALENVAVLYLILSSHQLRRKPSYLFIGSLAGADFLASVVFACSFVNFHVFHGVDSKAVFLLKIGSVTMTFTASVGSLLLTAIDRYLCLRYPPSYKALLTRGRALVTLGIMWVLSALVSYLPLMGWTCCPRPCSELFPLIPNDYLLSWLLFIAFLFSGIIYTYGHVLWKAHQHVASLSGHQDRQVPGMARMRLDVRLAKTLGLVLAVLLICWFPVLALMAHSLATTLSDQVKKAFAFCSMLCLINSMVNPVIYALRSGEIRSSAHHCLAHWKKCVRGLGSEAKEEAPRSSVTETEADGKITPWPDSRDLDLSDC
T1 sequence (P34972 whole entry): as above
CB1 receptor (human), sequence (P21554 whole entry): as the sequence (P21554 whole entry) above

Row | SMILES | pEC50 (CB2 receptor (human)) | pIC50 (Cannabinoid CB2 Receptor) | CB1 Receptor Functional Activity (change in functional activity, CRE β-gal) (CB1 receptor (human)) [%] | pIC50 (Cannabinoid CB1 Receptor) | change in functional activity (CB2 receptor (human); CB2 section, one compound concentration, relative to vehicle treated cell activity (100%)) [%] | pEC50 (CB1 receptor (human)) | pEC50 (CB2 receptor (human); SK-N-MC cells expressing CRE β-gal and human CB2, forskolin, β-galactosidase activity, varying compound concentrations, read-out: CB2 Receptor Functional Inverse Agonist EC50)
1 | CCOC(=O)N1CCc2c(c(C(=O)NC3C4(C)CCC(C4)C3(C)C)nn2Cc2ccccc2)C1 (centres unmarked) [Cpd 107, 1-benzyl-3-(1,3,3-trimethyl-bicyclo[2.2.1]hept-2-ylcarbamoyl)-1,4,6,7-tetrahydro-pyrazolo[4,3-c]pyridine-5-carboxylic acid ethyl ester] | 8.22 | 8.52 | −6 | 7.00 |  |  | 
2 | CC12CCC(C1)C(C)(C)C2NC(=O)c1nn(C2CCCCC2)c2c1CN(S(C)(=O)=O)CC2 (centres unmarked) [Cpd 133, 1-cyclohexyl-5-methanesulfonyl-4,5,6,7-tetrahydro-1H-pyrazolo[4,3-c]pyridine-3-carboxylic acid (1,3,3-trimethyl-bicyclo[2.2.1]hept-2-yl)-amide] |  | 6.52 |  | 6.40 | −29 | 6.14 | 
3 | COC(=O)N1CCc2c(c(C(=O)NC3C4(C)CCC(C4)C3(C)C)nn2Cc2ccccc2)C1 (centres unmarked) [Cpd 106, 1-benzyl-3-(1,3,3-trimethyl-bicyclo[2.2.1]hept-2-ylcarbamoyl)-1,4,6,7-tetrahydro-pyrazolo[4,3-c]pyridine-5-carboxylic acid methyl ester] | 9.10 | 8.70 |  | 6.70 |  | 5.05 | 
4 | CC(C)(C)OC(=O)N1CCc2c(c(C(=O)NC3C4(C)CCC(C4)C3(C)C)nn2C2CCCCC2)C1 (centres unmarked) [Cpd 117, 1-cyclohexyl-3-(1,3,3-trimethyl-bicyclo[2.2.1]hept-2-ylcarbamoyl)-1,4,6,7-tetrahydro-pyrazolo[4,3-c]pyridine-5-carboxylic acid tert-butyl ester] |  | 8.00 | −10 | 4.93 |  |  | 7.05
5 | CCOC(=O)N1CCc2c(c(C(=O)NC3C4(C)CCC(C4)C3(C)C)nn2C2CCCCC2)C1 (centres unmarked) [Cpd 120, 1-cyclohexyl-3-(1,3,3-trimethyl-bicyclo[2.2.1]hept-2-ylcarbamoyl)-1,4,6,7-tetrahydro-pyrazolo[4,3-c]pyridine-5-carboxylic acid ethyl ester] | 7.30 | 7.70 |  | 6.30 |  | 7.70 | 
